Experimental data: paper PMC9198979, “Polymeric Nanotubes as Drug Delivery Vectors—Comparison of Covalently and Supramolecularly Assembled Constructs” (Biomacromolecules, 2022)

Assay: In vivo pharmacokinetics of 14C-radiolabelled compounds after IV dosing (plasma and urine radioactivity)
Design: species or system male Sprague Dawley rats
Conditions: rat
Procedure: All animal experimental protocols were approved by the Monash Institute of Pharmaceutical Sciences Animal Ethics Committee, Monash University, Parkville, VIC, Australia. Male Sprague Dawley rats (250–350 g) were used. Animals were maintained on a 12 h light/dark cycle at all times and after transport were acclimatized for 7 days at the facility prior to in vivo studies. […] Urine samples were collected at the 24 h timepoint, and a 50 μL of the sample was transferred to a vial, 4 mL of Ultima Gold added and counted using the scintillator. A blank urine sample prior to dosage was also collected and analyzed to account for background radiation. The pharmacokinetic parameters were determined using non-compartmental analysis with Excel software using the PK Solver add-in (NCA IV Bolus model). […] AUC0-t, elimination half-life (t1/2), volume of distribution at steady state (Vd ss), and clearance rate (Cl) were calculated with this approach. For the linear compound, the 1440 min timepoint was omitted from parameter fitting due to the very low radioactivity for this measurement. The ^14C-radiolabeled compounds were injected intravenously into male Sprague-Dawley rats at a nominal dose of radioactivity (1 μCi, varying 0.82–2.78 mg dose of the sample) and blood samples taken over the course of 24 h to monitor the plasma concentration time profiles.

Row | Substance | Cl (clearance rate) [mL h^–1]
1 | (PNAM50-co-NAS2.5)140 [BB] | 0.342 ± 0.102
2 | PNAM100-co-NAS5 [linear] | 16.9 ± 0.91
